Where two headings read alike, the source gives them in different places.

The test concerns RS4; 11 with G101V mutation. In words: In vitro anti-proliferation assay (ATPlite luminescence) in BCL-2-dependent ALL cell line RS4;11 with G101V mutation. It is filed as cell-based. Conditions: read-out: RS411-G101V IC50. Summed up:
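RS4;11 G101V cells at about 1×10^4 per well were exposed to a range of compound concentrations for about 72 h in medium with 10% FBS. Cellular ATP was measured by ATPlite luminescence after lysis, and IC50 was derived from the dose-response.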
(Cellular ATP, detected with luciferase, serves as a proxy for viable cell number.)

The mark [1] stands for this setting: cellular anti-proliferative IC50, about 72 hours, medium with 10% FBS, ATPlite.

In the case of `CC(C)Oc1ccccc1[C@@H]1CN([C@H]2COc3c(F)cc(F)cc3C2)CCN1C1CC2(CCN(c3ccc(C(=O)NS(=O)(=O)c4cc5c(c([N+](=O)[O-])c4)N[C@H](C4CCOCC4)CO5)c(N4c5cc6cc[nH]c6nc5O[C@H]5COCC[C@@H]54)c3)CC2)C1` [Example 221, 4-(2-((R)-4-((R)-6,8-difluorochroman-3-yl)-2-(2-isopropoxyphenyl)piperazin-1-yl)-7-azaspiro[3.5]nonan-7-yl)-N-(((R)-5-nitro-3-(tetrahydro-2H-pyran-4-yl)-3,4-dihydro-2H-benzo[b][1,4]oxazin-7-yl)sulfonyl)-2-((5aS,9aR)-6,7,9,9a-tetrahydro-1H-pyrano[3,4-b]pyrrolo[3′,2′:5,6]pyrido[3,2-e][1,4]oxazin-5(5aH)-yl)benzamide], for the setting “Homo sapiens, RS4-11, 72 h”, the IC50 – broadly, the concentration that gives 50% inhibition – amounted to 130 nM.
The same measure, in the same setting: the result for `Cc1ccccc1[C@@H]1CN(Cc2cnc(N3CCOC[C@@H]3C)c(OC(C)C)c2)CCN1C1CC2(CCN(c3ccc(C(=O)NS(=O)(=O)c4cc5c(c([N+](=O)[O-])c4)N[C@H](C4CCOCC4)CO5)c(N4c5cc6cc[nH]c6nc5O[C@H]5COCC[C@@H]54)c3)CC2)C1` [Example 190, 4-(2-((R)-4-((5-isopropoxy-6-((S)-3-methylmorpholino)pyridin-3-yl)methyl)-2-(o-tolyl)piperazin-1-yl)-7-azaspiro[3.5]nonan-7-yl)-N-(((R)-5-nitro-3-(tetrahydro-2H-pyran-4-yl)-3,4-dihydro-2H-benzo[b][1,4]oxazin-7-yl)sulfonyl)-2-((5aS,9aR)-6,7,9,9a-tetrahydro-1H-pyrano[3,4-b]pyrrolo[3′,2′:5,6]pyrido[3,2-e][1,4]oxazin-5(5aH)-yl)benzamide] reads 11.1 nM; that for `CC(C)Oc1ccccc1[C@@H]1CN(Cc2ccc(C3CC3)nc2)CCN1C1CC2(CCN(c3ccc(C(=O)NS(=O)(=O)c4cc5c(c([N+](=O)[O-])c4)N[C@H](C4CCOCC4)CO5)c(N4c5cc6cc[nH]c6nc5O[C@H]5COCC[C@@H]54)c3)CC2)C1` [Example 257, 4-(2-((R)-4-((6-cyclopropylpyridin-3-yl)methyl)-2-(2-isopropoxyphenyl)piperazin-1-yl)-7-azaspiro[3.5]nonan-7-yl)-N-(((R)-5-nitro-3-(tetrahydro-2H-pyran-4-yl)-3,4-dihydro-2H-benzo[b][1,4]oxazin-7-yl)sulfonyl)-2-((5aS,9aR)-6,7,9,9a-tetrahydro-1H-pyrano[3,4-b]pyrrolo[3′,2′:5,6]pyrido[3,2-e][1,4]oxazin-5(5aH)-yl)benzamide], 3.9 nM.
Regarding `CC(C)Oc1ccccc1[C@@H]1CN([C@H]2CCCOC2)CCN1C1CC2(CCN(c3ccc(C(=O)NS(=O)(=O)c4cc5c(c([N+](=O)[O-])c4)N[C@H](C4CCOCC4)CO5)c(N4c5cc6cc[nH]c6nc5O[C@H]5COCC[C@@H]54)c3)CC2)C1` [Example 175, 4-(2-((R)-2-(2-isopropoxyphenyl)-4-((S)-tetrahydro-2H-pyran-3-yl)piperazin-1-yl)-7-azaspiro[3.5]nonan-7-yl)-N-(((R)-5-nitro-3-(tetrahydro-2H-pyran-4-yl)-3,4-dihydro-2H-benzo[b][1,4]oxazin-7-yl)sulfonyl)-2-((5aS,9aR)-6,7,9,9a-tetrahydro-1H-pyrano[3,4-b]pyrrolo[3′,2′:5,6]pyrido[3,2-e][1,4]oxazin-5(5aH)-yl)benzamide], where the note is “Homo sapiens, RS4-11, 72 h”, the half-maximal inhibitory concentration (IC50) stood at 67.2 nM.
Take “4-(2-((R)-2-(2-isopropoxyphenyl)-4-((S)-tetrahydro-2H-pyran-3-yl)piperazin-1-yl)-7-azaspiro[3.5]nonan-7-yl)-N-(((R)-5-nitro-3-(tetrahydro-2H-pyran-4-yl)-3,4-dihydro-2H-benzo[b][1,4]oxazin-7-yl)sulfonyl)-2-((5aS,9aR)-6,7,9,9a-tetrahydro-1H-pyrano[3,4-b]pyrrolo[3′,2′:5,6]pyrido[3,2-e][1,4]oxazin-5(5aH)-yl)benzamide [Example 208]”: under setting [1], the IC50 is 72.7 nM.
`CC(C)Oc1ccccc1[C@@H]1CN([C@@H]2CCOc3c(F)cc(F)cc32)CCN1C1CC2(CCN(c3ccc(C(=O)NS(=O)(=O)c4cc5c(c([N+](=O)[O-])c4)N[C@H](C4CCOCC4)CO5)c(N4c5cc6cc[nH]c6nc5O[C@H]5COCC[C@@H]54)c3)CC2)C1` [Example 215, 4-(2-((R)-4-((R)-6,8-difluorochroman-4-yl)-2-(2-isopropoxyphenyl)piperazin-1-yl)-7-azaspiro[3.5]nonan-7-yl)-N-(((R)-5-nitro-3-(tetrahydro-2H-pyran-4-yl)-3,4-dihydro-2H-benzo[b][1,4]oxazin-7-yl)sulfonyl)-2-((5aS,9aR)-6,7,9,9a-tetrahydro-1H-pyrano[3,4-b]pyrrolo[3′,2′:5,6]pyrido[3,2-e][1,4]oxazin-5(5aH)-yl)benzamide]: under “Homo sapiens, RS4-11, 72 h”, the IC50 was 48 nM.
On the same count and under the same terms, the result for `CC(C)Oc1ccccc1[C@@H]1CN(Cc2cccnc2)CCN1C1CC2(CCN(c3ccc(C(=O)NS(=O)(=O)c4cc5c(c([N+](=O)[O-])c4)N[C@H](C4CCOCC4)CO5)c(N4c5cc6cc[nH]c6nc5O[C@H]5COCC[C@@H]54)c3)CC2)C1` [Example 253, 4-(2-((R)-2-(2-isopropoxyphenyl)-4-(pyridin-3-ylmethyl)piperazin-1-yl)-7-azaspiro[3.5]nonan-7-yl)-N-(((R)-5-nitro-3-(tetrahydro-2H-pyran-4-yl)-3,4-dihydro-2H-benzo[b][1,4]oxazin-7-yl)sulfonyl)-2-((5aS,9aR)-6,7,9,9a-tetrahydro-1H-pyrano[3,4-b]pyrrolo[3′,2′:5,6]pyrido[3,2-e][1,4]oxazin-5(5aH)-yl)benzamide] reads 10.2 nM.
On to `COc1cc(CN2CCN(C3CC4(CCN(c5ccc(C(=O)NS(=O)(=O)c6ccc(NCC7CCC(C)(O)CC7)c([N+](=O)[O-])c6)c(N6c7cc8c(F)c[nH]c8nc7O[C@H]7COCC[C@@H]76)c5)CC4)C3)[C@@H](c3ccccc3OC(C)C)C2)cnc1N1CCOCC1` (stereo partly drawn) [Example 122, 2-[(3R,8S)-13-fluoro-2,5-dioxa-9,15,17-triazatetracyclo[8.7.0.0^{3,8}.0^{12,16}]heptadeca-1(10),11,13,16-tetraen-9-yl]-4-{2-[(2S)-2-(2-isopropoxyphenyl)-4-{[5-methoxy-6-(morpholin-4-yl)pyridin-3-yl]methyl}piperazin-1-yl]-7-azaspiro[3.5]nonan-7-yl}-N-[3-nitro-4-({[(1r,4r)-4-hydroxy-4-methylcyclohexyl]methyl}amino)benzenesulfonyl]benzamide], for which, under setting [1], the IC50 came out at 10 nM.
Still for that read-out and setting: the result for `Cc1ccccc1[C@@H]1CN(Cc2ccc(F)c(F)c2)CCN1C1CC2(CCN(c3ccc(C(=O)NS(=O)(=O)c4cc5c(c([N+](=O)[O-])c4)N[C@@H](C4CCOCC4)CO5)c(N4c5cc6cc[nH]c6nc5O[C@H]5COCC[C@@H]54)c3)CC2)C1` [Example 167, 4-{2-[(2R)-4-[(3,4-difluorophenyl)methyl]-2-(2-methylphenyl)piperazin-1-yl]-7-azaspiro[3.5]nonan-7-yl}-2-[(3R,8S)-2,5-dioxa-9,15,17-triazatetracyclo[8.7.0.0^{3,8}.0^{12,16}]heptadeca-1(10),11,13,16-tetraen-9-yl]-N-[(3S)-5-nitro-3-(oxan-4-yl)-3,4-dihydro-2H-1,4-benzoxazin-7-ylsulfonyl]benzamide] reads 75.8 nM.
Consider `CC[C@@H](c1ccc(F)c(F)c1)N1CCN(C2CC3(CCN(c4ccc(C(=O)NS(=O)(=O)c5cc6c(c([N+](=O)[O-])c5)N[C@H](C5CCOCC5)CO6)c(N5c6cc7cc[nH]c7nc6O[C@H]6COCC[C@@H]65)c4)CC3)C2)[C@H](c2ccccc2OC(C)C)C1` [Example 247, 4-(2-((R)-4-((S)-1-(3,4-difluorophenyl)propyl)-2-(2-isopropoxyphenyl)piperazin-1-yl)-7-azaspiro[3.5]nonan-7-yl)-N-(((R)-5-nitro-3-(tetrahydro-2H-pyran-4-yl)-3,4-dihydro-2H-benzo[b][1,4]oxazin-7-yl)sulfonyl)-2-((5aS,9aR)-6,7,9,9a-tetrahydro-1H-pyrano[3,4-b]pyrrolo[3′,2′:5,6]pyrido[3,2-e][1,4]oxazin-5(5aH)-yl)benzamide], for which the IC50 (Homo sapiens, RS4-11, 72 h) was determined as 45.7 nM.
Regarding `Cc1ccccc1[C@@H]1CN(Cc2cnc(N3CCOCC3)c(OC(C)C)c2)CCN1C1CC2(CCN(c3ccc(C(=O)NS(=O)(=O)c4ccc(NCC5CCC(C)(O)CC5)c([N+](=O)[O-])c4)c(N4c5cc6cc[nH]c6nc5O[C@H]5COCC[C@@H]54)c3)CC2)C1` (stereo partly drawn) [Example 145, 2-[(3R,8S)-2,5-dioxa-9,15,17-triazatetracyclo[8.7.0.0^{3,8}.0^{12,16}]heptadeca-1(10),11,13,16-tetraen-9-yl]-4-{2-[(2R)-4-{[5-isopropoxy-6-(morpholin-4-yl)pyridin-3-yl]methyl}-2-(2-methylphenyl)piperazin-1-yl]-7-azaspiro[3.5]nonan-7-yl}-N-[3-nitro-4-({[(1r,4r)-4-hydroxy-4-methylcyclohexyl]methyl}amino)benzenesulfonyl]benzamide], the IC50 under setting [1] was found to be 6.1 nM.
The same measure, in the same setting: the result for `CC(C)Oc1ccccc1[C@H]1CN(Cc2ccc(N3CCOCC3)cn2)CCN1C1CC2(CCN(c3ccc(C(=O)NS(=O)(=O)c4ccc(NCC5CCC(C)(O)CC5)c([N+](=O)[O-])c4)c(N4c5cc6cc[nH]c6nc5O[C@H]5COCC[C@@H]54)c3)CC2)C1` (stereo partly drawn) [Example 128, N-((4-((((1r,4r)-4-hydroxy-4-methylcyclohexyl)methyl)amino)-3-nitrophenyl)sulfonyl)-4-(2-((S)-2-(2-isopropoxyphenyl)-4-((5-morpholinopyridin-2-yl)methyl)piperazin-1-yl)-7-azaspiro[3.5]nonan-7-yl)-2-((5aS,9aR)-6,7,9,9a-tetrahydro-1H-pyrano[3,4-b]pyrrolo[3′,2′:5,6]pyrido[3,2-e][1,4]oxazin-5(5aH)-yl)benzamide] reads 22.2 nM.

Source of the values: patent US20250114374A1, “BCL-2 INHIBITORS” (Newave Pharmaceutical Inc., priority 2021, published 2025).
